“Also recorded” adds a separate entry of the source. Read-outs that look alike come from different tables or passages of the source. Where no end group is shown, it is not given here.

One assay has as its system c-AbI kinase. Kind of assay: c-AbI kinase assay with biotinylated model substrate peptide and 32P-γ-ATP. In kind it is biochemical. The following applies: for Fold Change (PEP): Vmax relative to PEP. Here is the method:
(§1) AbI kinase. His-tagged, uncapped active c-AbI, E46 through C-terminus (isoform 1b) (kind gift of Tony Koleske, Yale University, New Haven, Conn.), was produced and purified from baculovirus as described (Tanis et al., 2003) following treatment of insect cells with 30 μM STI-571 (Novartis Pharma AG, Basel, Switzerland) for 48 hrs prior to cell lysis. The expressed protein was affinity purified on nickel-nitriloacetic acid agarose, washed to remove the inhibitor, and subsequently purified by ion-exchange chromatography using a Mono S column (Amersham Biosciences, Piscataway, N.J.). GST fusions of c-AbI SH2 domain wild type and SH2 domain containing the R171K mutation, and mammalian expression plasmid containing c-AbI-GST (isoform 1b, with the GST at the C-terminus) were obtained from Bruce Mayer (University of Connecticut Health Center, Farmington, Conn.).
Kinase assay. Measurement of kinase activity was essentially as described in (Tanis et al., 2003), using biotinylated model substrate peptide GGEAIYAAPFKK (SEQ ID NO: 16), (Brasher and Van Etten, 2000; Songyang et al., 1995) and ^32P-γ-ATP. SAM2 streptavidin-coated membrane (Promega Corφoration, Madison Wis.) was used to capture the substrate. Kinase assay mixtures contained 50 mM Tris-HCI pH 7.5, 10 mM MgCl2, 1 mM EGTA, 2 mM dithiothreitol, 0.01% Brij 35, and 100 μM ATP, 2 nM AbI kinase, substrate peptides, and Abil ligand peptides as indicated. Reactions were carried out for 5 min. at 30° C. To evaluate c-AbI kinase activity in LnCAP cell lines, cells were treated with pervanadate for 10 min. prior to cell lysis, and immunoprecipitates from lysed cells were tested using GST-Crk as substrate.

For another assay, the target named is T1, AbI SH2 domain (Homo sapiens, UniProt P00519).
T1 construct: GST-tagged AbI SH2 domain; gift of Bruce Mayer (University of Connecticut Health Center)
T1 sequence (P00519 127-217 limits assumed): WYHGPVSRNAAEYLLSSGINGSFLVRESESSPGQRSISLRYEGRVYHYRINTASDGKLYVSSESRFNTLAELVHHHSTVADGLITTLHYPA
Briefly: Surface plasmon resonance (Biacore) binding of biotinylated Abi1 peptides to GST-tagged AbI SH2 domain. Here is the method:
as §1
Surface Plasmon Resonance Assay. Surface plasmon resonance assay was performed using a Biacore 3000 instrument (BlAcore Inc., Piscataway, N.J.). Biotinylated 14-residue peptides, pY213 or Y213, were coupled to surface of streptavidin-coated (SA) biosensor chip (BIAcore Inc., Piscataway, N.J.). […] Sensograms (plots of changes in response unit on the surface as a function of time) derived were analyzed using the software BIAeval 3.0. […]
In general terms: Surface plasmon resonance follows binding to a sensor surface in real time, without labels.

The mark [1] stands for this setting: concentrations lower than 2 mM, 100 μM substrate peptide.
Where [2] appears, read: peptide concentration 2 mM, 100 μM substrate peptide.
[3] abbreviates: increasing peptide concentrations, 100 μM substrate peptide.

A word on the Km: it is the substrate concentration at which the rate is half of its maximum. Regarding “GGEAIYAAPFKK (also: biotinylated, site not given here) [PEP, reference compound]”, the Michaelis-Menten constant (Km) with c-AbI kinase (Km of substrate peptide PEP alone) turned out to be 21.2 ± 3.37 µM. The “Fold Change (PEP)” value with c-AbI kinase (PEP alone) amounted to 1.00. In addition, the Vmax with c-AbI kinase (substrate peptide PEP alone, no Abi1 peptide, mean ± s.d., n=3) was 157.79 ± 9.29 pmol/min-μg.

Take “GTLSRTNPLTQKPPSPPMSGRGTLGRNTPYKTLEPVKPPTVPNDpYMTSP [Pro-pY213]”: the “Kd (in words)” value in the assay with AbI SH2 domain (GST-SH2, Biacore, data not shown) is listed as “low millimolar range”. Also, the “effect on c-AbI kinase activity (in words)” value (“effect” below) in the assay with c-AbI kinase is “showed inhibition”; with c-AbI kinase (setting [1]), “no inhibition was observed”; with c-AbI kinase (peptide 1.5 mM), “decrease of activity”; in the assay on c-AbI kinase (peptide 0.75 to 1.25 mM) it was “increased the kinase activity”; with c-AbI kinase (peptide 1.75 and 2 mM) it was “inhibition”; with c-AbI kinase (setting [2]) it was “enhanced the inhibitory effect”.

On to “Pro-F198: Abi1 peptide spanning residues 169-203 with Y198 to F198 replacement (GTLSRTNPPTQKPPSPPMSGRGTLGRNTPFKTLEP; UniProt Q8IZP0 169-203, looked up, variant Y198F)”, for which, in the assay with c-AbI kinase (setting [3]), the “effect” value was “effect was lost”.

On to “Pro-Y198: Abi1 peptide spanning residues 169-203, with PXXP motif PPSPP and Y198, excludes pY213 sequence”, for which, in the assay with c-AbI kinase (setting [3]), the “effect” value is listed as “increased inhibition”.

For the substance “Y213: 14-residue Abi1 peptide containing nonphosphorylated tyrosine 213 (VKPPTVPNDYMTSP; not fully specified) [Peptide Y213]”, the “effect” value in the assay on c-AbI kinase is given as “showed inhibition; also recorded: most potent inhibition”; in the assay on c-AbI kinase (setting [1]), “significant kinase inhibition at lower concentrations than the pY213 peptide”; in the assay with c-AbI kinase (setting [2]), “more significant reduction of the kinase activity than pY213”. Besides, the Vmax in the assay on c-AbI kinase (Abi1 peptide at 2 mM, 5-min assay, increasing substrate peptide, mean ± s.d., n=3) came to 2.90 ± 1.16 pmol/min-μg; in the assay on c-AbI kinase (Y213 peptide at 0.1 (mM)), 112.11 ± 7.80 pmol/min-μg; in the assay on c-AbI kinase (Y213 peptide at 0.25), 86.68 ± 19.71 pmol/min-μg. For the same substance, the Km in the assay with c-AbI kinase (Km of substrate peptide, Abi1 peptide at 2 mM) amounted to 16.3 ± 0.6 µM; in the assay with c-AbI kinase (Km of substrate peptide, Y213 at 0.1) it was 14.9 ± 2.74 µM; with c-AbI kinase (Km of substrate peptide, Y213 at 0.25) it was 16.5 ± 7.29 µM. Also, the “Fold Change (PEP)” value was determined as 0.018 in the assay on c-AbI kinase (Abi1 peptide at 2 mM), 0.71 in the assay on c-AbI kinase (Y213 at 0.1) and 0.55 in the assay with c-AbI kinase (Y213 at 0.25).

By Kd is commonly meant a measure of binding affinity in units of concentration. With “pY213: 14-residue Abi1 peptide containing phosphorylated tyrosine 213; Abi1 14-mer sequence vkpptvpndymtsp (SEQ ID NO:5) (VKPPTVPNDYMTSP)”, in the assay with AbI SH2 domain (peptide on SA chip, varying AbI SH2 concentration, 1:1 binding model, read-out: dissociation constant, KD), the Kd stood at 33.2 nM.

These data come from US8148320B2, “Peptide inhibitors of ABL kinases” (New York Blood Center, Inc., priority 2005, dated 2012).
